Reference: patent publication US10481149B2

Tests used:
Assay type in all cases: cell-based
BSEP [1] = biological target: T1, BSEP (Mus musculus, UniProt Q9QY30); assay: IC50 for inhibition of BSEP activity in mouse hepatocytes
T1 sequence (Q9QY30 1-1321): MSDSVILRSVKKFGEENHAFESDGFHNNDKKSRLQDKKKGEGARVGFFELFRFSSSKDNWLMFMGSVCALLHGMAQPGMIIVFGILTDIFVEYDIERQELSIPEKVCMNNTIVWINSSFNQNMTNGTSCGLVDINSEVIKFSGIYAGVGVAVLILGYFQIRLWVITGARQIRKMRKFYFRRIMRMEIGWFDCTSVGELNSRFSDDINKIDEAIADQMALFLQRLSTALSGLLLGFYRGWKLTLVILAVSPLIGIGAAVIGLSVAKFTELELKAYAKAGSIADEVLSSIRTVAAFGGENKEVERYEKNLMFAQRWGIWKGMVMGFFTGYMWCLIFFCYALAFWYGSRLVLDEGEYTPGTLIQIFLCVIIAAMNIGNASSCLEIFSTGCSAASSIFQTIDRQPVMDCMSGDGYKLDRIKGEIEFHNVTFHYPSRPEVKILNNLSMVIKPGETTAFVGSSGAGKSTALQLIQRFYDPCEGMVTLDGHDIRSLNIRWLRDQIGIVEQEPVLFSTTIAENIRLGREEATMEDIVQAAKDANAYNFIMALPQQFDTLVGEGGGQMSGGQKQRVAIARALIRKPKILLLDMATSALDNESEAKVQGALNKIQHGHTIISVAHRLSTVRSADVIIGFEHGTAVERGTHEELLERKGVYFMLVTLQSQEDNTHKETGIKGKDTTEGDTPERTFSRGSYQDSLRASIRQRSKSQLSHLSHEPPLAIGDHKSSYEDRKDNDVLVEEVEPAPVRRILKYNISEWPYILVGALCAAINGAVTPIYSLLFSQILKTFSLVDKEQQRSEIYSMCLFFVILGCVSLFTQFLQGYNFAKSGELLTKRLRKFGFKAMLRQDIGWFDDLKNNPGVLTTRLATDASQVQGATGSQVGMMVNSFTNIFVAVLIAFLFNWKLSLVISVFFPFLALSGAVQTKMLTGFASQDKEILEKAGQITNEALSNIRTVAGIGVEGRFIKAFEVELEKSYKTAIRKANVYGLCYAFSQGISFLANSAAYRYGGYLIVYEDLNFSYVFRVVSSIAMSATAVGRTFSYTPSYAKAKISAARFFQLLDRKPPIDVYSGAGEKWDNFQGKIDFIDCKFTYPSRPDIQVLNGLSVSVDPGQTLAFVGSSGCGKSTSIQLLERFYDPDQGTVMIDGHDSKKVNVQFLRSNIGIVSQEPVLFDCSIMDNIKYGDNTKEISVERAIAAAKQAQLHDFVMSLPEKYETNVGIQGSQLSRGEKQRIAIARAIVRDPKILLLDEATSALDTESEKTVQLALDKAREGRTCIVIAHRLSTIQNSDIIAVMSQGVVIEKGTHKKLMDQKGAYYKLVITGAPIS
Method: (§1) Kinetic parameters were calculated using standard Michaelis-Menten kinetics. IC50 values were determined using Prism software (La Jolla, Calif.) or median-effect equation. [Chou et al., Theoretical basis, experimental design, and computerized simulation of synergism and antagonism in Drug Combination Studies. Pharmacological Reviews 58, 621, 2006]

BSEP [2] = biological target: T2, BSEP (Canis lupus familiaris, UniProt B8K1W2); assay: IC50 for inhibition of BSEP activity in dog hepatocytes
T2 sequence (B8K1W2 1-1325): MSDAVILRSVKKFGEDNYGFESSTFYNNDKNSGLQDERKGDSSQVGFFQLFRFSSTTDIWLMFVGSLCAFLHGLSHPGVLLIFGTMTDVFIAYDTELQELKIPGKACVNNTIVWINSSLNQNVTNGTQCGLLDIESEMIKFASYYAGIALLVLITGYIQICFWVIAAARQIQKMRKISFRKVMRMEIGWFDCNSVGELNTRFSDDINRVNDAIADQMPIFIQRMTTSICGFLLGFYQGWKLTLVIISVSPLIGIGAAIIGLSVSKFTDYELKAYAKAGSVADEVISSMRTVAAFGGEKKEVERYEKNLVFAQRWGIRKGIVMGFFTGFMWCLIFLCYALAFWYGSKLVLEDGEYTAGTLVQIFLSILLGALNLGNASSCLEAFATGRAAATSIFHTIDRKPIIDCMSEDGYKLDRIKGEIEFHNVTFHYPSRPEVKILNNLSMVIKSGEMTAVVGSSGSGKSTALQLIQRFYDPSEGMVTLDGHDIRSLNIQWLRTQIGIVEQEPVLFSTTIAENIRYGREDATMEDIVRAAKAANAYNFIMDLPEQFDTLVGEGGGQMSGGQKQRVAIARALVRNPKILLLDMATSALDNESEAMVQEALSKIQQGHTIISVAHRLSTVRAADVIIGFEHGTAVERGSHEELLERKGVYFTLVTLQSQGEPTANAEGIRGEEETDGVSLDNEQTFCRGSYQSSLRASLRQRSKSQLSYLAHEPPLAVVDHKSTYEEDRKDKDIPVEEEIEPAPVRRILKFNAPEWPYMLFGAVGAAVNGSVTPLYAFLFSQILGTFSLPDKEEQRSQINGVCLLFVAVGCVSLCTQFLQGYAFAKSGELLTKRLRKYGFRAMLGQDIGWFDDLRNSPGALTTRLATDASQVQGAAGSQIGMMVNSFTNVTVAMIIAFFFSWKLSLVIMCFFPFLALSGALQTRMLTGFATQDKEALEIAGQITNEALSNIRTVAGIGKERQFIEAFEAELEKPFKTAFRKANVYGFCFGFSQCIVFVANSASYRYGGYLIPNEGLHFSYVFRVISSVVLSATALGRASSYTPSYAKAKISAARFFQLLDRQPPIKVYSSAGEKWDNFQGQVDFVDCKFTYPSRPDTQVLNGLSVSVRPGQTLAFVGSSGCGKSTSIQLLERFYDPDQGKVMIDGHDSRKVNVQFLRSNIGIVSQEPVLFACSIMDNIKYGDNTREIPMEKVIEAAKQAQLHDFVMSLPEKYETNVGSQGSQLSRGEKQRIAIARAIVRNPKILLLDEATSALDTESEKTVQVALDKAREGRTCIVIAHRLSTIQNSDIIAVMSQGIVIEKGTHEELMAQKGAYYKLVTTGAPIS
Method: as §1

BSEP [3] = biological target: BSEP (Homo sapiens, UniProt O95342); assay: IC50 for inhibition of BSEP activity in human hepatocytes
Method: as §1

BSEP (Homo sapiens, UniProt O95342), sequence (O95342 whole entry): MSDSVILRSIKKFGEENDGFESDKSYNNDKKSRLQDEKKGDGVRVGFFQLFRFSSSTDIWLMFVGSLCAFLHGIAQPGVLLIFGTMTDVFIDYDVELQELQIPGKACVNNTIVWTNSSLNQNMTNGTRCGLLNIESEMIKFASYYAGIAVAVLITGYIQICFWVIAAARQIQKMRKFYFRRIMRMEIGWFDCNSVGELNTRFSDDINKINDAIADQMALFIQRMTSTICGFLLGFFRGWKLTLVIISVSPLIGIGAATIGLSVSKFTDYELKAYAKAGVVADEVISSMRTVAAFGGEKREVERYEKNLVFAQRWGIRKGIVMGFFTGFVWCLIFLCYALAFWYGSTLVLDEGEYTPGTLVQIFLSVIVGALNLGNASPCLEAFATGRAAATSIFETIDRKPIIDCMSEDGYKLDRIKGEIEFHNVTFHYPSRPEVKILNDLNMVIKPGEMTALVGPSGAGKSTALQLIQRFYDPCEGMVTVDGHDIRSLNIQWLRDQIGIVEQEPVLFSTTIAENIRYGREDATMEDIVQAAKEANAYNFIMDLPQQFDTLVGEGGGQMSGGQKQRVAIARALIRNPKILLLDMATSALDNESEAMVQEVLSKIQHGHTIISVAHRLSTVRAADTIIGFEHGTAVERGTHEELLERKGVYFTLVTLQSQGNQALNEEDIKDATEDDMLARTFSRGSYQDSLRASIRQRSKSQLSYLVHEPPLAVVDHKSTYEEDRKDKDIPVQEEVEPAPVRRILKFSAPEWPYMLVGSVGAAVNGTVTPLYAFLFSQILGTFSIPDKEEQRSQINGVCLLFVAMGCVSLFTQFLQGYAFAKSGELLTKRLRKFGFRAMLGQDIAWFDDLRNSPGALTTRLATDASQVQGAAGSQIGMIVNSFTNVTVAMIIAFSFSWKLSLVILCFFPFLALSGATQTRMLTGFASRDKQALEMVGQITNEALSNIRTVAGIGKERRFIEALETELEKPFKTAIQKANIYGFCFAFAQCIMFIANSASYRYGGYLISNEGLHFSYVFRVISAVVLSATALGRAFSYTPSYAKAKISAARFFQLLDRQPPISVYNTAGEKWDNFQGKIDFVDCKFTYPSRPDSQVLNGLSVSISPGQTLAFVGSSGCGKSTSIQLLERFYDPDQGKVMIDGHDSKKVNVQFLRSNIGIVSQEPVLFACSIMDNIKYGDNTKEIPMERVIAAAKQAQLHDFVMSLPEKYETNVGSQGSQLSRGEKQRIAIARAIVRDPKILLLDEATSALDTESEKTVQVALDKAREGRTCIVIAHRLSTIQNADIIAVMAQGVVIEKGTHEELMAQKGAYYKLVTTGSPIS

SMILES | IC50 (BSEP [1]) [µM] | IC50 (BSEP [2]) [µM] | IC50 (BSEP [3]) [µM]
CC(=O)N1CCN(c2ccc(OCC3COC(Cn4ccnc4)(c4ccc(Cl)cc4Cl)O3)cc2)CC1 (stereo not shown) [Ketoconazole, ketoconazole] | > 10 | 1 to 10 | –
CO[C@H]1/C=C/O[C@@]2(C)Oc3c(C)c(O)c4c(O)c(c(/C=N/N5CCN(C)CC5)c(O)c4c3C2=O)NC(=O)/C(C)=C\C=C\[C@H](C)[C@H](O)[C@@H](C)[C@@H](O)[C@@H](C)[C@H](OC(C)=O)[C@@H]1C [Rifampicin] | > 10 | > 10 | –
Cc1c(C)c2c(c(C)c1O)CCC(C)(COc1ccc(CC3SC(=O)NC3=O)cc1)O2 (stereo not shown) [Troglitazone, troglitazone] | > 10 | 1 to 10 | 1 to 10
